Assay results: patent US5349127A, “Expression of herbicide metabolizing cytochromes P450” (priority 1992, dated 1994)

Tests used:
[1] = tested on: S. lividans transformed with pCAO400; test: Sulfonylurea metabolism by washed cell suspension (Example 5); format: in vitro ADME, Streptomyces lividans; conditions: substrate 10004 about 100 μg/ml
Experimental: (§1) Herbicides and their metabolites are measured by HPLC as described by Romesser et al., BBRC 140: 650-659 (1986), herein incorporated by reference, except that 0.1% H3 PO4 is used in both solvents. Chromatographic identity and quantitation of the herbicides and their resulting metabolites is determined by comparing them chromatographically with authentic standard compounds. Identity of the resulting metabolites is also confirmed by UV spectroscopy.
(§2) A 100 ml culture of S. griseolus ATCC 11796 in sporulation broth and a 50 ml culture of S. lividans transformed with pCAO400 in YEME broth were prepared and incubated for 24 hours as described. At that time, the S. griseolus culture was split into two 50 ml aliquots into two separate flasks and 25 ml of fresh sporulation broth was added to each and 9 mg of […] was added to one of these cultures to induce cytochrome P450SU1 expression. Fresh YEME broth (25 ml) was added to the S. lividans culture. After an additional 6 hours growth at 30° C., the cells in each culture were harvested as described above, washed twice with MOPS (50 mM, pH 7.2) and recentrifuged. The cell pellets were resuspended in four cell volumes of MOPS (50 mM, pH 7.2) containing 0.2% glucose and about 100 μg/ml of 10004. These cell suspensions were incubated at 30° C. with shaking and aliqouts were taken at 2 and 5.5 hours. The supernatant of each aliquot was analyzed by HPLC and the concentrations of the sulfonylurea compound 10004 and its metabolite 10005 were determined.

[2] = tested on: S. lividans pCAO200SU1-FeS-B#9; test: Sulfonylurea metabolism by washed cell suspension (Examples 6-9); format: in vitro ADME, Streptomyces lividans
[3] = tested on: S. lividans pCAO200SU1#12; test: as above; format: in vitro ADME, Streptomyces lividans; conditions: substrate 10004
S. lividans pCAO200 [4] = test: as above; format: in vitro ADME, Streptomyces lividans; conditions: substrate 10004
[5] = Incubation buffer without cells, time 0 (Examples 5-9, 11, 12); format: in vitro ADME; conditions: no cells; substrate 10006; 0 h
Experimental: as §2
(§3) S. lividans transformed respectively with pCAO200SU1-FeS-B#9, pCAO200SU#112and pCAO200 were cultured for 36 hours in 400 ml of YEME broth at 30° C. S. griseolus ATCC 11796 was similarly cultured in 400 ml of sporulation broth. Six hours before harvesting the cells, 150 ml of fresh YEME broth was added to the S. lividans cells, and the S. griseolus cells were split into two 200 ml cultures with 100 ml of fresh sporulation broth added to each. 10001 (36 mg) was added to one of the two S. griseolus cultures to induce cytochrome P450SU1. The cells were prepared as described above in Example 5 and the concentrations of the sulfonylurea compound 10006 and its metabolites 10007, 10008 or 10009 were determined.
S. lividans transformed with pCAO200SU2-FeS-A#11 and S. lividans transformed with pCAO200 were cultured for 36 hours in 400 ml of YEME broth at 30° C. S. griseolus PH2001 (mutant without SU1) was cultured in 400 ml of sporulation broth at 30° C. Nine hours before harvesting the cells, the S. griseolus PH2001 culture was divided into two 200 ml cultures. Both received 100 ml of fresh sporulation broth and one received 36 mg of 10001 to induce cytochrome P450SU2. The cells were prepared as described above in Example 6 and the concentrations of the sulfonylurea compound 10001 and its metabolites 10002 and 10003 were determined.

[6] = tested on: S. griseolus ATCC 11796 induced with 10001; test: Sulfonylurea metabolism by washed cell suspension (Examples 5-9); format: in vitro ADME, Streptomyces griseolus; conditions: substrate 10006
Experimental: as §1, §2, §3

[7] = tested on: S. griseolus ATCC 11796 uninduced; test: as above; format: in vitro ADME, Streptomyces griseolus; conditions: substrate 10006
Experimental: as §1, §2, §3

[8] = tested on: S. lividans pCAO200SU1#12; test: Sulfonylurea metabolism by washed cell suspension (Examples 6-9); format: in vitro ADME, Streptomyces lividans; conditions: substrate 10006
S. lividans pCAO200 [9] = test: as above; format: in vitro ADME, Streptomyces lividans; conditions: substrate 10006
S. lividans C37 = test: Percent conversion of herbicides by cultures (Example 16); format: in vitro ADME, Streptomyces lividans; conditions: 3.0 mg herbicide in 25 ml broth; 24 hours
Experimental: (§4) Separate cultures (50 ml) inoculated with S. lividans C37, S. lividans transformed with pCAO200SU1-FeS-B#9, S. griseolus ATCC11796, S. griseolus PH2003 transformed with pIJ425, or S. ariseolus PH2003 transformed with pCS325 were cultured in sporulation broth for 18 hours at 30° C. with shaking. Each culture was then resuspended in 25 ml fresh sporulation broth and 3.0 mg herbicide added. In the case of cultures of S. griseolus ATCC11796, a second culture containing herbicide and 3.0 mg 10001 was also prepared. Each culture was reincubated for 24 hours, then an aliquot of the medium was withdrawn and analyzed by HPLC. The percent conversion of herbicide was determined.

[10] = tested on: S. lividans pCAO200SU1-FeS-B#9; test: as above; format: in vitro ADME, Streptomyces lividans
Experimental: as §4

[11] = tested on: S. griseolus ATCC 11796, 10001 added; test: as above; format: in vitro ADME, Streptomyces griseolus; conditions: 3.0 mg herbicide and 3.0 mg 10001 in 25 ml broth; 24 hours
Experimental: as §4

S. griseolus ATCC 11796 = test: as above; format: in vitro ADME, Streptomyces griseolus; conditions: 3.0 mg herbicide in 25 ml broth; 24 hours
Experimental: as §4

[12] = tested on: S. griseolus PH2003 pCS325; test: as above; format: in vitro ADME, Streptomyces griseolus
Experimental: as §4

[13] = tested on: S. griseolus PH2003 pIJ425; test: as above; format: in vitro ADME, Streptomyces griseolus; conditions: 3.0 mg herbicide in 25 ml broth; 24 hours
Experimental: as §4

[14] = 3.0 mg herbicide in 25 ml broth, 24 hours

CCCCN1Cc2cccc(S(=O)(=O)NC(=O)Nc3nc(OC)cc(OC)n3)c2S1(=O)=O [compound 10004]
concentration in supernatant ([1]; 2 h): 72 µM | concentration in supernatant ([1]; 5.5 h): 0 µM | concentration in supernatant ([2]; substrate 10004, 2 h): 2 µM | concentration in supernatant ([2]; substrate 10004, 4 h): 1 µM | concentration in supernatant ([2]; substrate 10004, 6 h): 2 µM | concentration in supernatant ([3]; 2 h): 81 µM | concentration in supernatant ([3]; 4 h): 29 µM | concentration in supernatant ([3]; 6 h): 0 µM | concentration in supernatant (S. lividans pCAO200 [4]; 2 h): 97 µM | concentration in supernatant (S. lividans pCAO200 [4]; 4 h): 92 µM | concentration in supernatant (S. lividans pCAO200 [4]; 6 h): 85 µM

COc1cc(OC)nc(NC(=O)NS(=O)(=O)c2cccc3c2S(=O)(=O)N(CCC(C)O)C3)n1 (stereo not shown) [compound 10005, 2-(3-hydroxybutyl)-2,3-dihydro-N-[(4,6-dimethoxypyrimidin-2-yl)aminocarbonyl]1,2-benzisothiazole-7-sulfonamide-1,1-dioxide]
concentration in supernatant ([1]; 2 h): 67 µM | concentration in supernatant ([1]; 5.5 h): 125 µM | concentration in supernatant ([2]; substrate 10004, 2 h): 35 µM | concentration in supernatant ([2]; substrate 10004, 4 h): 100 µM | concentration in supernatant ([2]; substrate 10004, 6 h): 100 µM | concentration in supernatant ([3]; 2 h): 43 µM | concentration in supernatant ([3]; 4 h): 84 µM | concentration in supernatant ([3]; 6 h): 109 µM | concentration in supernatant (S. lividans pCAO200 [4]; 2 h): 22 µM | concentration in supernatant (S. lividans pCAO200 [4]; 4 h): 26 µM | concentration in supernatant (S. lividans pCAO200 [4]; 6 h): 30 µM

COC(=O)c1ccccc1S(=O)(=O)NC(=O)Nc1nc(C)nc(OC)n1 [compound 10006, N-[(4-methoxy-6-methyl-1,3,5-triazinyl)aminocarbonyl]-2-methoxycarbonylbenzenesulfonamide]
concentration in supernatant [5]: 362 µM | concentration in supernatant ([6]; 2 h): 369 µM | concentration in supernatant ([6]; 4 h): 357 µM | concentration in supernatant ([6]; 6 h): 355 µM | concentration in supernatant ([7]; 2 h): 404 µM | concentration in supernatant ([7]; 4 h): 394 µM | concentration in supernatant ([7]; 6 h): 405 µM | concentration in supernatant ([2]; substrate 10006, 2 h): 326 µM | concentration in supernatant ([2]; substrate 10006, 4 h): 267 µM | concentration in supernatant ([2]; substrate 10006, 6 h): 232 µM | concentration in supernatant ([8]; 2 h): 376 µM | concentration in supernatant ([8]; 4 h): 384 µM | concentration in supernatant ([8]; 6 h): 386 µM | concentration in supernatant (S. lividans pCAO200 [9]; 2 h): 381 µM | concentration in supernatant (S. lividans pCAO200 [9]; 4 h): 377 µM | concentration in supernatant (S. lividans pCAO200 [9]; 6 h): 375 µM

CN(C)c1nc(=O)n(C2CCCCC2)c(=O)n1C [compound 10017, 3-cyclohexyl-1-methyl-6-dimethylamino-S-triazine-2,4(1H,3H)dione]
Percent Conversion (S. lividans C37): 19% | Percent Conversion [10, 14]: 47% | metabolism by bacteria containing constitutively expressed P450SU1 ([10]; summary of Table 13): metabolized | Percent Conversion [11]: 35% | Percent Conversion (S. griseolus ATCC 11796): 1% | Percent Conversion [12, 14]: 98% | metabolism by bacteria containing constitutively expressed P450SU2 ([12]; summary of Table 13): metabolized | Percent Conversion [13]: 6%
